We go through 1 compound from US9657025B2, “Pyrazolopyrimidine compounds” (University Health Network, priority 2013, dated 2017).

The subject of the experiment is Ovarian TICs (Ovarian 2393A). The experiment can be described thus: Ovarian tumor-initiating cell growth inhibition, Alamar Blue assay. As to conditions: 144 h, read-out: Tumor Initiating Cell GI50 Range Ovarian 2393A. The format is cell-based. The source says: Materials and Methods: Non-tissue or tissure cultured treated T-75 flask and 96-well plates were purchased from VWR. Vitamin B-27 supplement, MEM NEAA (minimum essential medium non-essential amino acids), sodium pyruvate, L-glutamine, N2 supplement, penicillin-streptomycin and fungizone/amphotericin B were obtained from Invitrogen. Lipid mixture, heparin and EGF were purchased from Sigma; bFGF from BD Biosciences. Tumor Initiating Cells (TICs) from colon were routinely maintained using non-tissue cultured treated T-75 flasks in DMEM:F12 medium containing 0.2×B-27 supplement, 4 ug/ml heparin, 1×MEM NEAA, 1×sodium pyruvate, 1 mM glutamine, 10 pg/ul bFGF, 20 pg/ul EGF, 1× N2 supplement, lipid mixture, penicillin-streptomycin and fungizone/amphotericin B. Ovarian TICs were routinely maintained using tissue cultured treated T-75 flasks in DMEM:F12 medium containing 1×B-27 supplement, 4 ug/ml heparin, 20 pg/ul bFGF, 20 pg/ul EGF and penicillin-streptomycin. Assay Protocol: Compounds described herein were dissolved in DMSO and further diluted in cell culture medium for GI50 determination. […] Cell viability was assessed by Alamar Blue assay: 10 ul of Alamar Blue was added into each well. After 4 hours incubation at 37° C., fluorescence was recorded at excitation 544 and emission 590. GI50 (Growth inhibition) was calculated using GraphPad Prism 4.0 software. […]
(Alamar Blue is a resazurin reagent that responds to reducing activity.)

For orientation: GI50 means the concentration that inhibits growth by half.

Counter-ions that a name gives are not always drawn.

Regarding `Cc1cc(-c2cnn3c(NC[C@H]4C[C@@](C)(O)C4)cc(Oc4cccnc4)nc23)ccc1C(=O)NC1CC1` [Example A4, N-cyclopropyl-4-(7-((((1s,3s)-3-hydroxy-3-methylcyclobutyl)methyl)amino-5-(pyridin-3-yloxy)pyrazolo[1,5-a]pyrimidin-3-yl)-2-methylbenzamide hydrochloride and itsfreebase], the GI50 was less than 100 nM.
